Type in all cases: cell-based
Experiment [1] addresses T1, P2X purinoceptor 7 (Homo sapiens, UniProt Q99572).
T1 sequence (Q99572 whole entry): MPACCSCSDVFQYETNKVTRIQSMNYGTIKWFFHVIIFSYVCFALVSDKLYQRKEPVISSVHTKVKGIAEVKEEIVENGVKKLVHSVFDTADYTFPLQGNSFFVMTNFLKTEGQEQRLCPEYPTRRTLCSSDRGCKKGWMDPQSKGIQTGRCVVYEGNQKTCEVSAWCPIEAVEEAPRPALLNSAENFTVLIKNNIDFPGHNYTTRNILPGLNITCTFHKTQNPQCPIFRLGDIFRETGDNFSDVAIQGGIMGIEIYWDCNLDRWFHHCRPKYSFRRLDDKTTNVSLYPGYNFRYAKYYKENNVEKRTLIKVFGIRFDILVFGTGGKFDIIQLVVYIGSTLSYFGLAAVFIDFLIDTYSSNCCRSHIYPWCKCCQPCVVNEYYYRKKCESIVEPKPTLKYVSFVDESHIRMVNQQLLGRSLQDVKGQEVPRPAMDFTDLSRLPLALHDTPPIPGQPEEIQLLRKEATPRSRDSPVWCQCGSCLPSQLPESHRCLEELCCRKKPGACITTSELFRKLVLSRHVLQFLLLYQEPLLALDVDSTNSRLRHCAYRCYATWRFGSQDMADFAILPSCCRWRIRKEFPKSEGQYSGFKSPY
Briefly: Antagonist activity at human P2X7R transfected in HEK293 cells assessed as inhibition of ATP-mediated calcium influx measured after 10 mins by YOPRO-1 dye uptake assay.

For experiment [2], the target named is T2, P2X purinoceptor 4 (Homo sapiens, UniProt Q99571).
T2 sequence (Q99571 whole entry): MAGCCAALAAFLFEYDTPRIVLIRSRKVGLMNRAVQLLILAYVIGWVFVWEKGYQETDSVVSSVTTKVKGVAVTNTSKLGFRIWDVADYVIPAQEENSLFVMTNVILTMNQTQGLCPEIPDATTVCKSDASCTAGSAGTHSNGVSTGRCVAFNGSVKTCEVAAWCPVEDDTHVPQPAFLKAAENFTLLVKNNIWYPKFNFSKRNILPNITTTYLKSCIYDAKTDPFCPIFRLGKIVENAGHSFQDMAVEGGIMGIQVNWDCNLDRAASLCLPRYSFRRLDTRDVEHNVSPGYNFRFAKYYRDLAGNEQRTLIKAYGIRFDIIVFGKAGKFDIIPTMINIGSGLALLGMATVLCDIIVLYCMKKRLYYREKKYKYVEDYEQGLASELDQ
Nature of the experiment: Antagonist activity at human P2X4R transfected in 1321N1 cells assessed as inhibition of ATP-mediated calcium influx measured after 10 mins by Fura-2AM assay.

In experiment [3] the target is T2, P2X purinoceptor 4. Nature of the experiment: Antagonist activity at human P2X4R transfected in HEK293 cells assessed as inhibition of ATP-mediated calcium influx measured after 10 mins by YOPRO-1 dye uptake assay.

As for `CC(C)c1cc(Br)c(NC(=O)Nc2cccnc2)c(Br)c1`, in experiment [1], the IC50 entry is recorded as “Not Active”.

Consider `Cc1ccc(S(=O)(=O)N2c3ccccc3Oc3ccccc32)cc1`, for which the IC50 result in experiment [1] is given as “Not Active”.

For the compound `O=C1CN=C(c2cccc(Br)c2)c2oc3ccccc3c2N1`, in experiment [1], the IC50 result is recorded as “Not Active”.

Consider `O=C(CC12CC3CC(CC(C3)C1)C2)Nc1cccc2nc(NCCNCCO)ccc12`, for which the IC50 entry in experiment [2] and in experiment [3] was “Not Active” each time.

Values taken from ChEMBL document CHEMBL4414589, “Development of High-Throughput Fluorescent-Based Screens to Accelerate Discovery of P2X Inhibitors from Animal Venoms” (J Nat Prod, 2019).
